Reference: publication PMC2873112 (Chembiochem : a European journal of chemical biology, 2010)

Columns and labels:
Cop6 [1] = target: T1, Cop6 (Coprinopsis cinerea, UniProt A8NCK5, N224D); assay: product profile by GC-MS; type: biochemical; conditions: turnover only
Cop6 [2] = target: T1, Cop6; assay: product analysis by chiral GC-MS; type: biochemical; conditions: purified mutant; turnover only

T1 sequence (A8NCK5 whole entry N224D): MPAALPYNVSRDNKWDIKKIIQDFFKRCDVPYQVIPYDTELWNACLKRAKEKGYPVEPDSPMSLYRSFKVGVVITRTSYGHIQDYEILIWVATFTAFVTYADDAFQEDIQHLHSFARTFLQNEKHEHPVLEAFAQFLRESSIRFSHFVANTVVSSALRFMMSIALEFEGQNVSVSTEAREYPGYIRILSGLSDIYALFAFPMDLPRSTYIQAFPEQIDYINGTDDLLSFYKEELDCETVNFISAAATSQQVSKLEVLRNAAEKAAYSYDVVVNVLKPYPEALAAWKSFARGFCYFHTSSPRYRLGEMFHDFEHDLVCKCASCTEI

Structure (SMILES)	product profile by GC-MS (Cop6 [1])	product analysis by chiral GC-MS (Cop6 [2])
CC(C)=CCC/C(C)=C/CC/C(C)=C/COP(=O)(O)OP(=O)(O)O [(E,E)-FPP]	N224D does not affect the product profile of Cop6 with its normal substrate (E,E)-FPP	
CC(C)=CCC/C(C)=C/CC/C(C)=C\COP(=O)(O)OP(=O)(O)O [(Z,E)-FPP]		Mutant Cop6N224D now makes a small amount of an additional compound
